Source: US20140121216A1, “INDOLEAMINE DERIVATIVES FOR THE TREATMENT OF CENTRAL NERVOUS SYSTEM DISEASES” (Adamed Sp. z o.o., priority 2011, published 2014)

Key:
male Wistar rats [1] = assay: Conflict test (Vogel test) in rats; format: in vivo
Procedure: (§1) Drug-naive male Wistar rats (Charles River, Sulzfeld, Germany) weighing 250-400 g were housed in polycarbonate Makrolon cages (380×200×590 mm) in an environmentally controlled, experimental room (ambient temperature 21-23° C.; relative humidity 50-60%; 12:12 light:dark cycle, lights on at 7:00 a.m.), in groups of 4. Tap water and standard lab chow (Labofeed H, WPIK, Kcynia, Poland) was available ad libitum.
(§2) The animals were delivered to the Animal Research Unit of the Department of Pharmacology, Institute of Psychiatry and Neurology, 2 weeks before the start of experimental procedures. During these 2 weeks all the rats were repeatedly getting used to the presence of the experimenter (handling), and to injections of saline.
On the day before experiments rats were weighted exact to 1 g. Animals were assigned randomly to treatment groups. All the experiments were performed on separate groups of animals, between 9:00 and 15:00. Tested compound was administered intraperitoneally (i.p.) in an injection volume of 2 ml/kg in at least 3 selected doses. Control groups received an appropriate vehiculum. […]
The test was performed by modified method described by Vogel et al. (Psychopharmacologia, 21 (1), 8-12, 1971) using the monitoring system TSE Systems. […] The number of licks and the number of shocks received throughout a 5-min experimental session were recorded automatically.

male Wistar rats [2] = assay: Reversal of the dizocilpine (MK-801)-induced PPI deficits in rats; format: in vivo
Procedure: as §1, §2
On the day before experiments rats were weighted exact to 1 g. Animals were assigned randomly to treatment groups. All the experiments were performed on separate groups of animals, between 9:00 and 15:00. […]
The PPI apparatus consisted of eight acoustic startle chambers (SR-LAB, San Diego Instruments, San Diego, Calif., USA). […] Startle responses, reflecting the motion of animals in the cylinder following the acoustic stimulus, were detected by a piezoelectric transducer mounted below the frame. […]
The average inter-trial interval was 22.5 s (range: 15-30 s). […] Startle responses were measured for 100 ms after the onset of the last trial stimulus. […]

O=C1CCc2ccc(OCCCCN3CCN(c4cccc5c4ccn5S(=O)(=O)c4ccccc4)CC3)cc2N1 [Compound 24, 7-(4-(4-(1-(Phenylsulphonyl)-1H-indol-4-yl)piperazin-1-yl)butoxy)-3,4-dihydroquinolin-2(1H)-one]
activity in words, conflict drinking test (Vogel) (male Wistar rats [1]): active | MED (minimum effective dose), conflict test (Vogel test) (male Wistar rats [1]; i.p.): 3 mg/kg | activity in words, dizocilpine (MK-801)-induced PPI deficit test (male Wistar rats [2]): active | MED (minimum effective dose), reversal of dizocilpine (MK-801)-induced PPI deficits (male Wistar rats [2]; i.p., 60 min. before the test): 10 mg/kg
